Consider three compounds from patent US8785451B2, “Compounds for the treatment of proliferative disorders” (Synta Pharmaceuticals Corp., priority 2006, dated 2014).

Molecules are shown by their SMILES.

The experiment relates to inducible human Hsp70. Kind of experiment: Hsp70 RNA induction by quantitative PCR analysis. The format is cell-based. Conditions: Ramos B cells, 500 nM compound, 6 hours, Hsp70 RNA relative to gapdh; for fold induction at 0.5 µM: Homo sapiens, read-out: fold induction over DMSO; for % induction relative to Compound X: Compound X set to 100%. As for the experimental part: The ability of the compounds of the invention to induce Hsp70 RNA induction by quantitative PCR analysis was examined. Ramos B cells were treated with 500 nM each compound for 6 hours and the RNA was isolated from the cells. Quantitative PCR was performed as described below:
Details for Quantitative PCR are as follows:
500 ng of RNA from each sample was used for cDNA synthesis using iScript cDNA Synthesis Kit (Biorad, Cat#170-8891). 1 ul of cDNA mixture was used with the iQ SYBR Green Supermix (Biorad, Cat#170-8882) to perform quantitative PCR in an iCycler machine (Biorad) using standard protocols. QPCR for each sample/time point was performed in duplicate. The following primers for inducible human Hsp70 and gapdh were used: […]
Ct values were obtained from the iCycler program and used in an equation (2^−ΔΔCT) for determining the amount of target relative to gapdh expression. This compares the relative expression of Hsp70 to the corresponding levels of gapdh in each sample. Duplicate wells were averaged. The amount of N-Malonyl-bis(N′-methyl-N′ thiobenzoylhydrazide) (Compound X) induction of Hsp70 was set to 100% and the percent of induction of Hsp70 by the compounds of the invention was determined relative to 100%.

Turning to `CN(/N=C/c1cccc(/C=N/N(C)C(=S)c2ccccc2)n1)C(=S)c1ccccc1` [Compound 16, (N′,N″E,N′,N″E)-N′,N″-(pyridine-2,6-diylbis(methan-1-yl-1-ylidene))bis(N-methylbenzothiohydrazide)], the fold induction at 0.5 µM was 0.48 and the “% induction relative to Compound X” value is 0.18%.

Take `CN(/N=C/c1cccc(/C=N/N(C)C(=S)c2ccccc2)c1)C(=S)c1ccccc1` [Compound 17, (N′,N″E,N′,N″E)-N′,N″-(1,3-phenylenebis(methan-1-yl-1-ylidene))bis(N-methylbenzothiohydrazide)]: the fold induction at 0.5 µM came out at 0.54 and the “% induction relative to Compound X” value is on record as 0.20%.

With `CN(/N=C1\CCC/C(=N\N(C)C(=S)c2ccccc2)C1)C(=S)c1ccccc1` [Compound 22, (N′,N″E,N′,N″E)-N′,N″-(cyclohexane-1,3-diylidene)bis(N-methylbenzothiohydrazide)], the fold induction at 0.5 µM stood at 0.16 and the “% induction relative to Compound X” value is given as 0.06%.
